{
  "source": "patent US20260109951A1",
  "about": "“METHODS AND COMPOSITIONS FOR INDUCING HEMATOPOIETIC CELL DIFFERENTIATION” (FATE THERAPEUTICS, INC., priority 2022, published 2026)",
  "molecules": {"B1": {"name": "BMP4: bone morphogenetic protein, cytokine, BMP activator (protein, UniProt P12644 293-408, looked up)", "Bone morphogenetic protein 4": "SPKHHSQRARKKNKNCRRHSLYVDFSDVGWNDWIVAPPGYQAFYCHGDCPFPLADHLNSTNHAIVQTLVNSVNSSIPKACCVPTELSAISMLYLDEYDKVVLKNYQEMVVEGCGCR"}},
  "key": {"[1]": {"test_system": "tumor", "assay": "anti-tumor efficacy of treated, cryopreserved iNK cells", "assay_type": "cell-based", "settings": "treated and cryopreserved cells versus untreated or control cells, FIG. 15", "excerpt": "Cells that have been treated with CH-223191 were cryopreserved in liquid nitrogen long term. To assess recovery of the cells from cryopreservation, the cells were thawed and cultured in B0 medium for a period of 7 days and cell counts taken during the course of this culture. […] Further, cells that have been treated with CH-223191 and cryopreserved in liquid nitrogen were further assessed for function in vitro and in vivo."}, "[2]": {"test_system": "iPSC-derived NK cells", "assay": "iNK expansion by co-culture with IL21 and 41BBL expressing irK562 feeder cells", "assay_type": "cell-based, human", "settings": "about 3 μM added at day 2 of about 7 day expansion, versus without AhR inhibitor, FIG. 14", "excerpt": "To modulate effector cell activation during the cell expansion stage of iPSC differentiation, an AhR (aryl hydrocarbon receptor) inhibitor was discovered to improve effector cell function, including anti-tumor efficacy. iPSCs were differentiated into definitive HE cells as previously described, and were subsequently differentiated into pre-expansion NK cells, at which point they were expanded by co-culture with IL21 and 41BBL expressed by irK562 feeder cells for about 7 days. An exemplary AhR inhibitor, CH-223191 (among others such as UM729, UM171, SR1), was added to the expansion culture at day 2 with a final concentration of about 3 μM to potentiate expansion signals."}, "[3]": {"test_system": "hiPSC-derived CD34+ HE cells", "assay": "hiPSC monolayer differentiation to definitive HE, flow cytometric analysis of D10 cells", "assay_type": "cell-based, human", "protocol": "To initiate differentiation towards the hematopoietic lineage, hiPSCs were seeded as a monolayer on Day (D) 0 in the maintenance medium and allowed to adhere and expand for about 24 hours. The monolayers were maintained until around D5-D6 at which point they were dissociated into single cells and seeded as a low-density monolayer until differentiation at around D10. The D10 dissociated single cell population was sorted by FACS for further analysis and marker profiling for definitive HE characterization. Alternatively, or in addition thereto, as disclosed herein, one or more of anti-CD82, anti-CD34, and anti-CD43 antibodies were used for cell sorting the D10 cell population to obtain definitive HE cells comprising a phenotype of CD82^+, CD34^+CD82^+ or CD34^+CD43^−CD82^+, which were optionally cryopreserved in cryopreservation medium or continued with effector cell differentiation.\nThe flow cytometric analysis of D10 cells differentiated under control conditions was compared to cells differentiated under cytokine conditions that includes BMP4. RUNX1 is a transcription factor expressed in the cell and believed to be mostly associated with HE identity. The cells were gated on single/live events. The […] cells and the […] cells were then stained with anti-human antibodies and analyzed by LEGENDScreen™. […]"}, "[4]": {"test_system": "TNF-α production", "settings": "previously shown; cited from earlier work"}},
  "data": [
    {"molecule": "Cc1ccccc1N=Nc1ccc(NC(=O)c2ccnn2C)c(C)c1", "note": "[CH-223191]", "values": [
      {"measurement": "anti-tumor efficacy", "setting": "[1]", "value": "enhanced anti-tumor efficacy at endpoint"},
      {"measurement": "fold expansion and yield of differentiated NK cells", "setting": "[2]", "value": "greater fold expansion and yield of differentiated NK cells"}
    ]},
    {"molecule": "Fc1ccc(-c2nc(C3CCNCC3)sc2-c2ccnc(NC3CC3)n2)cc1", "note": "[DBM1285, cyclopropyl-{4-[4-(4-fluorophenyl)-2-piperidin-4-yl-thiazol-5-yl]pyrimidin-2-yl}amine]", "values": [
      {"measurement": "maintenance of CD82 expression (CD82+RUNX1+ subpopulation of CD34+ HE cells)", "setting": "[3]; p38 MAPK inhibitor added to composition for obtaining definitive HE cells from iPSC", "value": "beneficial to maintain CD82 expression"},
      {"measurement": "TNF-α production", "setting": "[4]", "value": "inhibit TNF-α production"}
    ]},
    {"molecule": "B1", "values": [
      {"measurement": "specification of RUNX1+ HE", "setting": "[3]; D10 cells, cytokine conditions including BMP4 versus control conditions, FIG. 1", "value": "specification of RUNX1^+ HE is cytokine driven"}
    ]}
  ]
}
